Source: US20250059139A1, “COMPOUNDS FOR TREATMENT OF CANCER” (THE JOHNS HOPKINS UNIVERSITY, priority 2021, published 2025)
pIC50: −log10 of the molar value.

Tests used:
[1] = test system: human umbilical vein endothelial cells (HUVECs); assay: Three dimensional (3D) endothelial sprouting assay; assay type: cell-based; details: HUVEC, CM-supplemented 3D-fibrin cultures, read-out: IC90 for inhibiting endothelial cell sprouting
Experimental: Three Dimensional (3D) Endothelial Sprouting Assay. The assay was performed using a minimum of 3 replicate wells of a 48 well tissue culture plate per drug dose per experiment, repeated 3 independent times in which human umbilical vein endothelial cells (HUVECs) obtained from Lonza Walkersville Inc (Walkersville, MD) attached to gelatin-coated dextran microcarrier bead are embedded in a fibrin matrix as described previously (Brennen et al. Oncotarget 7, 71298-71308 (2016)).
Besides its therapeutic effects on cancer cells, TasQ's anti-cancer efficacy also involves its dose-dependent anti-angiogenic activity (see, e.g., Isaacs 2006, Olsson 2010, Dalrymple 2012), Isaacs 2013, Isaacs 2014, Brennen 2016). To clarify the MoA for this anti-angiogenic activity, a 3-dimensional (3D) endothelial cell sprouting assay was used. In this assay, human umbilical vein endothelial cells (HUVECs) in basal media supplemented with VEGF, EGF, FGF, IGF1 and 2% FBS in standard 2D cultures are attached to collagen-coated beads embedded in a 3D-fibrin gel in the same growth factor-supplemented media. […] This lack of sprouting is associated with an upregulation in Mef-2c mRNA (Table 2) and protein (FIG. 38), and its target genes (Table 2) like Alpha 2 Macroglobulin (A2M). […]

liver Cyp1a1 = assay: Mouse liver Cyp1a1 induction after oral dosing (Q-PCR); assay type: in vivo
From the text: Real-time quantitative PCR (Q-PCR) analysis. […] ID NO: 2) and […] ID NO: 3). […] ID NO: 4) and […] ID NO: 5).

[2] = molecular target: T1, nuclear MEF2/HDAC4/NCoR1 formation in CWR-22Rv1 cells (Homo sapiens, UniProt P56524); assay: Nuclear NCoR1 immunoprecipitated with MEF-2 antibody in CWR-22Rv1 cells under hypoxia; assay type: cell-based; details: 1% O2, read-out: IC50 for inhibiting hypoxia-induced nuclear MEF2/HDAC4/NCoR1 formation (MEF-2 and NCoR1 IP)
T1 construct: endogenous in cells; host or cells: CWR-22Rv1 cells, nuclear extracts, 1% O2
T1 sequence (P56524 whole entry): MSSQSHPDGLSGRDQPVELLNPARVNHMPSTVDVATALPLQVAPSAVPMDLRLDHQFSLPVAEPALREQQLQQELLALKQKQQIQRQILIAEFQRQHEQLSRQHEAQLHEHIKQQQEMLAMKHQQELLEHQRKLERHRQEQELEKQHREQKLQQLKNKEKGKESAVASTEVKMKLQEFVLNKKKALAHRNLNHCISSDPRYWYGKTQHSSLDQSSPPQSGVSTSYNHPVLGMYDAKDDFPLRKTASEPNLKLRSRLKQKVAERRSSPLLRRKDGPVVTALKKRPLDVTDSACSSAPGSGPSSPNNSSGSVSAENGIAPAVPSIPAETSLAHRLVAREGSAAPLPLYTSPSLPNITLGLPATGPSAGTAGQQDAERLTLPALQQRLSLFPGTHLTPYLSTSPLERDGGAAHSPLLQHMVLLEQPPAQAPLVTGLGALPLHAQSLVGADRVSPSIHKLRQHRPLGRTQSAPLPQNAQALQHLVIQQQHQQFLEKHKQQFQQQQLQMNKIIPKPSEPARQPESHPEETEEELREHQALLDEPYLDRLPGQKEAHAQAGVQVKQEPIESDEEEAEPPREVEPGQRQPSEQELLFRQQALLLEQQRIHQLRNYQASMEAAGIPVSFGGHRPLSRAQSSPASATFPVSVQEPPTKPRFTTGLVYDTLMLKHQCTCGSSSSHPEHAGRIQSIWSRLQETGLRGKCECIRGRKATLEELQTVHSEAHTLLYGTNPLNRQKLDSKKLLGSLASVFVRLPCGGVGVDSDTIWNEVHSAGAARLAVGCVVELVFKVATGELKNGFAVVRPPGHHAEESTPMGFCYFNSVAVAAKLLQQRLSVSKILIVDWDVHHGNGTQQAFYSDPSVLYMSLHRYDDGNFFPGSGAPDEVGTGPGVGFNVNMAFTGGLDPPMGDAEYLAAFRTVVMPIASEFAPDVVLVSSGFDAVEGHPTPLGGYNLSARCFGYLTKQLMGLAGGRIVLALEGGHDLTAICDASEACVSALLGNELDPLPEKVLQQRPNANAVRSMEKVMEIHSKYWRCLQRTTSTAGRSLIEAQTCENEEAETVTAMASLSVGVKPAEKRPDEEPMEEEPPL
From the text: While HIF-1α is required for the upregulation of hypoxia survival genes, it is not required for the hypoxia-induced widespread transcriptional repression, which is also needed for enhanced survival in the compromised TME (Denko et al. Nat Rev Cancer 8, 705-713 (2008)). MEF-2 is also a HDAC4 client (McKinsey et al. Trends Biochem Sci 27, 40-47 (2002)). MEF-2 dimers bind to target gene promoters, forming a hydrophobic groove composed of AA 1-78 of each monomer to which HDAC4 binds via its amphipathic helix at AA 168-184 (Han et al. J Mol Biol 345, 91-102 (2005)). When MEF-2 binds, HDAC4 forms a NCoR1/HDAC3 complex, which deacetylates MEF2 and histones within its proximity; thereby, repressing expression of its target genes (McKinsey 2002). When CWR-22Rv1 cells are switched from a 21% to a 1% 02 environment in vitro, there is a 3-fold increase in NCoR1 immunoprecipitated with MEF-2 from nuclear extracts (FIG. 36). Co-treatment with TasQ inhibits this hypoxia-induced increase in nuclear MEF2/HDAC4/NCoR1 formation with an IC50 of 5 μM (FIG. 36). These in vitro results are consistent with gene expression analysis of CWR22-RH PDX tissue from castrate hosts in vivo, which document that daily oral TasQ (10 mg/kg/d) inhibits the binding of NCoR1, and thus HDAC3 to the MEF-2/HDAC4 complex, relieving repression of MEF-2 target genes needed for survival under hypoxic conditions (Table 1B).

| SMILES | IC90 [1] [µM] | induction of liver Cyp1a1 (liver Cyp1a1; given orally at 30 mg/kg/d) | pIC50 [2] | induction of liver Cyp1a1 (liver Cyp1a1; daily oral 10 mg/kg, alone and in combination with B(a)P) [fold] |
| --- | --- | --- | --- | --- |
| COc1cccc2c1c(O)c(C(=O)N(c1ccc(C(F)(F)F)cc1)C1CCCCC1)c(=O)n2C [ESATA-20] | 1 | lack of induction | > 6.00 | – |
| COc1cccc2c1c(O)c(C(=O)N(C)c1ccc(C(F)(F)F)cc1)c(=O)n2C [TasQ, Tasquinimod] | 10 | – | 5.30 | > 50 |
